One experiment concerns Tenebrio molitor L. The experiment can be described thus: Tenebrio test: topical application to pupae, inhibition of adult characters. To be noted: topical in acetone to abdomen of 0.5 to 2 hours old pupae; 27°C, 70% RH; ecdysis 5 to 7 days later; perfect adult 0%, perfect second pupa 100%. Type of experiment: in vivo. Here is the method:
The biological tests are examplified by tests on Tenebrio molitor L., Galleria mellonella L. and Culex pipiens L. Tenebrio test: The material in question is applied topically to the abdomen of 0.5 to 2 hours old pupae of the said specimen, as a solution in acetone. The pupae are held at 27°C and 70% RH, ecdysis occuring 5 to 7 days later. The degree of inhibition of adult characters is refered to an arbitrary scale, a morphologically perfect adult given the character 0%, a perfect second pupa 100%.

For another experiment, the system named is Culex pipiens L. The experiment can be described thus: Culex test: mature larvae, loss of 50% of the test animals. Type of experiment: in vivo. To be noted: concentration producing a loss of 50% of the test animals, read-out: Culex test IC-50 eclos. Here is the method:
Culex test: The compounds were tested on mature larvae of Culex pipiens. (IC-50 eclos.) in ppm.

≈ marks a conversion by molar mass, not a printed value. Bounds are passed on as bounds.

As for `CCOC(=O)C=NOCC=C(C)CCC=C(C)C` [Compound 14, Glyoxylic acid ethylester aldoxime-O-geranyl ether], in the experiment on Tenebrio molitor L., the “Tenebrio test ID-50 morph.” value stood at 1 μg/pupa. In addition, in the experiment with Culex pipiens L., the LC50 stood at 1 µg/mL (≈ 3.95 µM). For the compound `CCC(C)=CCON=Cc1ccc2c(c1)OCO2` [Compound 9, Piperonaloxime-O-(3-methyl-2-pentene-1-yl)-ether], the “Tenebrio test ID-50 morph.” value in the experiment with Tenebrio molitor L. turned out to be 10 μg/pupa. Besides, the LC50 in the experiment on Culex pipiens L. is 0.02 µg/mL (≈ 0.0809 µM).

Turning to `CC(C)=CCCC(C)=CCON=Cc1ccc2c(c1)OCO2` [Compound 5, Piperonaloxime-O-geranyl ether], in the experiment on Tenebrio molitor L., the “Tenebrio test ID-50 morph.” value was above 100 μg/pupa. Moreover, in the experiment with Culex pipiens L., the LC50 was determined as 1 µg/mL (≈ 3.32 µM). In the same order, the values of `CCC(C)=CCON=Cc1ccccc1` [Compound 10, Benzaldoxime-O-(3-methyl-2-pentene-1-yl)-ether] are above 100 μg/pupa and 1 µg/mL (≈ 4.92 µM).

As to `CCOC(=O)C=NOCC=C(C)CCCC(C)(C)OCC` [Compound 16, Glyoxylic acid ethylester aldoxime-O-(7-ethoxy-geranyl)-ether], the “Tenebrio test ID-50 morph.” value in the experiment on Tenebrio molitor L. turned out to be 1 μg/pupa. In addition, in the experiment on Culex pipiens L., the LC50 is 1 µg/mL (≈ 3.34 µM). For the compound `CC(C)=CCCC(C)=CCON=Cc1cccnc1` [Compound 7, 3-Pyridinealdoxime-O-geranyl ether], the “Tenebrio test ID-50 morph.” value in the experiment on Tenebrio molitor L. is given as 10 μg/pupa. Take `CCC(C)=CCCON=Cc1ccc2c(c1)OCO2` [Compound 11, Piperonaloxime-O-(4-methyl-3-hexene-1-yl)-ether]: the “Tenebrio test ID-50 morph.” value with Tenebrio molitor L. is reported as above 100 μg/pupa. The LC50 in the experiment with Culex pipiens L. worked out at 0.5 µg/mL (≈ 1.91 µM). As to `CCC(C)=CCCC(=CCON=Cc1ccccc1)CC` [Compound 4, Benzaldoxime-O-(3-ethyl-7-methyl-2,6-nonadiene-1-yl)-ether], in the experiment on Tenebrio molitor L., the “Tenebrio test ID-50 morph.” value is 0,01 μg/pupa. As for `CC(C)=CCCC(C)CCON=Cc1ccccc1` (stereo not drawn) [Compound 8, Benzaldoxime-O-citronellyl ether], the “Tenebrio test ID-50 morph.” value in the experiment on Tenebrio molitor L. is above 100 μg/pupa. Further, the LC50 with Culex pipiens L. was below 10 µg/mL. The like results for `CCOC(=O)C=NOCC=C(C)CCC1OC1(C)C` (stereo not drawn) [Compound 15, Glyoxylic acid ethylester aldoxime-O-(epoxygeranyl)-ether] were, in that order, 1 μg/pupa and 1 µg/mL (≈ 3.71 µM). The like results for `CC(C)=CCCC(C)=CCON=Cc1ccc(C)cc1` [Compound 6, p-Tolualdoxime-O-geranyl ether] were, in that order, 50 μg/pupa and 10 µg/mL (≈ 36.8 µM).

`CCC(C)=CCCON=Cc1ccccc1` [Compound 12, Benzaldoxime-O-(4-methyl-3-hexene-1-yl)-ether]: in the experiment on Tenebrio molitor L., the “Tenebrio test ID-50 morph.” value was above 100 μg/pupa. In addition, in the experiment with Culex pipiens L., the LC50 is below 10 µg/mL. The like results for `CC(C)=CCCC(C)=CCON=Cc1ccccc1` [Compound 1, Benzaldoxime-0-geranyl ether] were, in that order, 0,05 μg/pupa and below 1 µg/mL. With `CC(C)=CCCC(C)=CCON=CCO` [Compound 13, Glycollicaldoxime-O-geranyl ether], in the experiment on Tenebrio molitor L., the “Tenebrio test ID-50 morph.” value turned out to be 50 μg/pupa. For the same compound, in the experiment on Culex pipiens L., the LC50 came to 10 µg/mL (≈ 47.3 µM). Regarding `CC(=CCON=Cc1ccccc1)CCC1OC1(C)C` (stereo not drawn) [Compound 2, Benzaldoxime-O-epoxygeranyl ether], in the experiment on Tenebrio molitor L., the “Tenebrio test ID-50 morph.” value is listed as > 0,1 μg/pupa.
